The values that follow are results of earlier work, collected in US11027026B2, “Polymer, and contrast agent for photoacoustic imaging, including the polymer” (CANON KABUSHIKI KAISHA, priority 2014, dated 2021).

The conditions of the series: in vivo.

Turning to `CC1(C)C(/C=C/C=C/C=C/C=C2/N(CCCCS(=O)(=O)[O-])c3ccc4ccccc4c3C2(C)C)=[N+](CCCCS(=O)(=O)[O-])c2ccc3ccccc3c21.[Na+]` [ICG, indocyanine green], the Half-life in blood result was “about several minutes”.
